Experimental data from PubChem BioAssay AID1845219 (Molecular Pharmacology Branch, DTP, NCI, 2023).

System: SYO-1 tumor spheroids, viability % test/control
Assay: Anticancer human tumor SYO-1 cell line growth inhibition;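 also: spheroids exposed to agents for 7 days before viability read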;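 as to viability, T/C: 100% = DMSO vehicle control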
Settings: spheroids with HUVEC and MSC; for IC50: curve of first compound; for viability, T/C: stronger effect = lower value
Procedure, shortened: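 Complex spheroids of malignant cells with endothelial cells and mesenchymal stem cells; agents alone or combined, from near clinical Cmax (or 10 microM if unknown) down in half-log steps, 0.25% DMSO final.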

[1] = second compound 1 µM, first compound 0.0316 µM
[2] = second compound 1 µM, first compound 0.1 µM
[3] = second compound 1 µM, first compound 0.316 µM
[4] = second compound 1 µM, first compound 1 µM
[5] = second compound 1 µM, first compound 3.16 µM
[6] = second compound 1 µM, first compound 10 µM
[7] = second compound 3.16 µM, first compound 0.0316 µM
[8] = second compound 3.16 µM, first compound 0.1 µM
[9] = second compound 3.16 µM, first compound 0.316 µM
[10] = second compound 3.16 µM, first compound 1 µM
[11] = second compound 3.16 µM, first compound 3.16 µM
[12] = second compound 3.16 µM, first compound 10 µM
[13] = second compound 10 µM, first compound 0.0316 µM
[14] = second compound 10 µM, first compound 0.1 µM
[15] = second compound 10 µM, first compound 0.316 µM
[16] = second compound 10 µM, first compound 1 µM
[17] = second compound 10 µM, first compound 3.16 µM
[18] = second compound 10 µM, first compound 10 µM
[19] = second compound 31.6 µM, first compound 0.0316 µM
[20] = second compound 31.6 µM, first compound 0.1 µM
[21] = second compound 31.6 µM, first compound 0.316 µM
[22] = second compound 31.6 µM, first compound 1 µM
[23] = second compound 31.6 µM, first compound 3.16 µM
[24] = second compound 31.6 µM, first compound 10 µM
[25] = second compound 100 µM, first compound 0.0316 µM
[26] = second compound 100 µM, first compound 0.1 µM
[27] = second compound 100 µM, first compound 0.316 µM
[28] = second compound 100 µM, first compound 1 µM
[29] = second compound 100 µM, first compound 3.16 µM
[30] = second compound 100 µM, first compound 10 µM

Row | SMILES | IC50 (second compound 1 µM) [µM] | IC50 (second compound 3.16 µM) [µM] | IC50 (second compound 10 µM) [µM] | IC50 (second compound 31.6 µM) [µM] | IC50 (second compound 100 µM) [µM] | viability, T/C [1] [%] | viability, T/C [2] [%] | viability, T/C [3] [%] | viability, T/C [4] [%] | viability, T/C [5] [%] | viability, T/C [6] [%] | viability, T/C [7] [%] | viability, T/C [8] [%] | viability, T/C [9] [%] | viability, T/C [10] [%] | viability, T/C [11] [%] | viability, T/C [12] [%] | viability, T/C [13] [%] | viability, T/C [14] [%] | viability, T/C [15] [%] | further results
1 | CC(C)n1c(=O)n(C)c2cnc3cc(F)c(-c4ccc(OCCCN5CCCCC5)nc4)cc3c21 + Cn1nnc2c(C(N)=O)ncn2c1=O | > 10 | > 10 | 9.26 | 7.88 | > 10 | 100 | 101 | 103 | 103 | 101 | 59.1 | 105 | 104 | 106 | 104 | 103 | 52 | 105 | 100 | 103 | viability, T/C [16]: 108%; viability, T/C [17]: 102%; viability, T/C [18]: 46.3%; viability, T/C [19]: 106%; viability, T/C [20]: 113%; viability, T/C [21]: 106%; viability, T/C [22]: 115%; viability, T/C [23]: 104%; viability, T/C [24]: 35.8%; viability, T/C [25]: 108%; viability, T/C [26]: 112%; viability, T/C [27]: 106%; viability, T/C [28]: 96.2%; viability, T/C [29]: 103%; viability, T/C [30]: 73%
2 | CC1COCCN1c1cc(-c2ccnn2C)c2ccnc(-c3ccn[nH]3)c2n1 (stereo not given) + Cn1nnc2c(C(N)=O)ncn2c1=O | < 0.0316 | < 0.0316 | < 0.0316 | < 0.0316 | < 0.0316 | 41.1 | 5.35 | 2.75 | 1.62 | 0.73 | 0.7 | 38.4 | 4.75 | 3.22 | 1.73 | 7.91 | 20 | 20.3 | 3.73 | 2.69 | viability, T/C [16]: 1.48%; viability, T/C [17]: 5.25%; viability, T/C [18]: 21.1%; viability, T/C [19]: 11.1%; viability, T/C [20]: 10.2%; viability, T/C [21]: 2.45%; viability, T/C [22]: 1.18%; viability, T/C [23]: 7.18%; viability, T/C [24]: 6.71%; viability, T/C [25]: 2.97%; viability, T/C [26]: 2.88%; viability, T/C [27]: 1.91%; viability, T/C [28]: 1.24%; viability, T/C [29]: 0.77%; viability, T/C [30]: 0.75%
3 | COc1cc(C)[nH]c(=O)c1CN1CCc2c(Cl)cc(C(OC)C3COC3)c(Cl)c2C1=O (stereo not given) + Cn1nnc2c(C(N)=O)ncn2c1=O | > 10 | > 10 | > 10 | > 10 | 0.697 | 110 | 108 | 97.7 | 86.7 | 81.1 | 73.8 | 110 | 107 | 99.5 | 89.1 | 77 | 67.8 | 108 | 107 | 97.6 | viability, T/C [16]: 89.7%; viability, T/C [17]: 76.2%; viability, T/C [18]: 71.6%; viability, T/C [19]: 119%; viability, T/C [20]: 111%; viability, T/C [21]: 95.1%; viability, T/C [22]: 80.8%; viability, T/C [23]: 69.6%; viability, T/C [24]: 62.4%; viability, T/C [25]: 106%; viability, T/C [26]: 102%; viability, T/C [27]: 69.7%; viability, T/C [28]: 40.5%; viability, T/C [29]: 41.7%; viability, T/C [30]: 35.6%
4 | COc1ccc([C@@H](O)c2cc(-c3ncnc4cc(N5CCOCC5)ccc34)c(F)cc2Cl)nn1 + Cn1nnc2c(C(N)=O)ncn2c1=O | 4.95 | 4.59 | 4.93 | 4.12 | 1.97 | 107 | 112 | 112 | 107 | 77.3 | 7.18 | 101 | 106 | 108 | 105 | 68.3 | 11.9 | 108 | 108 | 110 | viability, T/C [16]: 107%; viability, T/C [17]: 74.6%; viability, T/C [18]: 10.7%; viability, T/C [19]: 116%; viability, T/C [20]: 110%; viability, T/C [21]: 111%; viability, T/C [22]: 109%; viability, T/C [23]: 59.4%; viability, T/C [24]: 18.4%; viability, T/C [25]: 113%; viability, T/C [26]: 116%; viability, T/C [27]: 107%; viability, T/C [28]: 80.2%; viability, T/C [29]: 29%; viability, T/C [30]: 2.71%
5 | Cc1cc(C)c(CNC(=O)c2cc(-c3ccc(CN4CCOCC4)cc3)cc3c2cnn3C2CCCC2)c(=O)[nH]1 + Cn1nnc2c(C(N)=O)ncn2c1=O | > 10 | > 10 | > 10 | > 10 | 7.99 | 106 | 105 | 110 | 104 | 106 | 97 | 103 | 106 | 103 | 104 | 105 | 89.6 | 103 | 106 | 106 | viability, T/C [16]: 108%; viability, T/C [17]: 101%; viability, T/C [18]: 71.2%; viability, T/C [19]: 106%; viability, T/C [20]: 108%; viability, T/C [21]: 107%; viability, T/C [22]: 111%; viability, T/C [23]: 105%; viability, T/C [24]: 74.6%; viability, T/C [25]: 107%; viability, T/C [26]: 111%; viability, T/C [27]: 107%; viability, T/C [28]: 101%; viability, T/C [29]: 76.1%; viability, T/C [30]: 43.7%
6 | [2H]c1nc(C)nc([2H])c1-c1cc(NC[C@@H](C)c2cccc3c(C(=O)NC)ccnc23)ncn1 + Cn1nnc2c(C(N)=O)ncn2c1=O | > 10 | > 10 | > 10 | > 10 | > 10 | 105 | 105 | 102 | 98.9 | 93.3 | 83 | 110 | 113 | 105 | 96.5 | 90 | 84.8 | 109 | 106 | 106 | viability, T/C [16]: 96.1%; viability, T/C [17]: 90.2%; viability, T/C [18]: 88.4%; viability, T/C [19]: 115%; viability, T/C [20]: 109%; viability, T/C [21]: 110%; viability, T/C [22]: 102%; viability, T/C [23]: 96.4%; viability, T/C [24]: 94%; viability, T/C [25]: 113%; viability, T/C [26]: 115%; viability, T/C [27]: 111%; viability, T/C [28]: 110%; viability, T/C [29]: 93.7%; viability, T/C [30]: 94.3%
